Measured values: patent US11117918B2, “Enzyme-directed immunostimulant and uses thereof” (Washington State University, priority 2016, dated 2021)

Experiments:
β-galactosidase = β-galactosidase (Escherichia coli, UniProt P00722); assay: Conversion of Imiquimod-β-galactopyranoside (6) to Imiquimod by exogenous β-galactosidase, LC-MS/MS; assay type: biochemical, E. coli
Method: (§1) For LC-MS/MS experiments, mobile phase A consisted of 0.05% formic acid and 0.2% acetic acid in water, and mobile phase B comprised 90% acetonitrile, 9.9% water, and 0.1% formic acid. Using a flow rate of 400 μL/min, mobile phase B 5% isocratic for 0.5 min, before gradient to 95% B over 2.2 min, followed by 95% isocratic for 0.1 min. The total chromatographic assay time (including time to equilibrate for the next run) was 4.0 min per sample. Optimized mass spectrometer parameters were as follows: collision gas, 20 psig; curtain gas, 20 psig; ion source gas 1, 60 psig; ion source gas 2, 40 psig; ion spray voltage, 5500 V; desolvation temperature, 600° C.; declustering potential, 70 V; entrance potential, 10 V; collision energy, 50 V; collision cell exit potential, 10 V. The substrate was detected using multiple reaction monitoring mode by monitoring the m/z fragmentation from 597.8 to 241.2 Da for (6) and the Imiquimod product was monitored for 241.2 to 185.1 Da fragmentation.
To confirm the chemical identity of Imiquimod liberated by β-gal-mediated conversion of (6), an end-point assay was performed using 1 U of β-gal in 200 μL of 10 μm (6) incubated for 16 h (37° C., 5% CO2). To stop the reaction, 50 μL AO Quench Internal Standard (20 μg/mL 2-methyl-4(3H)-quinazolinone in 1 m formic acid) was added to the reaction. This aliquot was compared to a 200 μL sample of 10 μm (6) without β-gal enzyme.
To determine the conversion of Imiquimod-β-Galactopyranoside (6) to Imiquimod in the presence of β-gal over time for exogenous experiments, aliquots (200 μL) of (6) at a concentration of 5 μm in DPBS were incubated with β-gal (1 U, 37° C., 5% CO2). To stop the reaction at the specified time points (0, 1, 2 min), 50 μL AO Quench Internal Standard (20 μg/mL 2-methyl-4(3H)-quinazolinone in 1 m formic acid) was added to each individual reaction. Depletion of (6) was measured by LC-MS/MS for each time point. […] Similar to above, aliquots of (6) for various time points (0, 0.25, 0.5, 1, 2, 3 h) were tested for conversion to immunostimulant by exogenous β-galactosidase.
β-galactosidase from E. coli was diluted with sterile Dulbecco's Phosphate Buffer Saline (DPBS) to an initial concentration of 5,000 U/mL. Aliquots of this stock were diluted with additional DPBS to a concentration of 500 U/mL and 5 mU/mL. Because of the E. coli source for β-galactosidase, samples were filtered with a sterile 0.2 μm syringe filter to guard against potential residual bacteria. Absence of bacteria was confirmed prior to use; filtered samples were plated on an agar plate and incubated for 3 days (37° C., 5% CO2). No bacterial growth was observed from the filtered enzyme.

[1] = tested on: β-galactosidase-enriched B16 melanoma cells; assay: Conversion of (6) to Imiquimod by β-galactosidase-enriched B16 cells, LC-MS/MS; assay type: cell-based, murine
Method: as §1
Murine melanoma cells (B16-F10, 5×10^6 cells) were removed from cell culture and pelletized via centrifuge (200 RCF, 0° C., 10 min). The supernatant was removed from the cell pellet, and cells were suspended in 1.5 mL of complete culture media (10% HI-FBS in DMEM) or preservative free FACS solution (10% HI-FBS in DPBS) that was pre-chilled on ice. Next, 15 μL of 0.5 mg/mL biotinylated α-gp-100 antibody (Abcam, UK) was added to the suspended cells, and the suspension was incubated on ice for 30 min with occasional shaking. Cells were then pelletized (200 RCF, 10 min, 0° C.) and washed 4 times each with 10 mL of chilled preservative free FACS solution (10% HI-FBS in DPBS). Washing Procedure: The cell pellet was suspended in 10 mL of FACS and centrifuged (200 RCF, 0° C., 10 min). Supernatant was removed from pellet, and the cells were suspended in subsequent chilled FACS solution for 1 min with constant shaking before this procedure was repeated. […] Enzyme enrichment (20-350 pU/cell) was quantified as average increase in enzymatic activity per cell determined by NPG colorimetric assay.

AT3B1 cells = assay: Conversion of pro-immunostimulant to Imiquimod by α-Mannosidase or AT3B-1 cells, LC-MS/MS; assay type: cell-based, rat; details: α-Mannosidase 0.1 U/mL or AT3B1 cells, 0-48 h
Method: To concretely determine the conversion of pro-immunostimulant (compound 6) to Imiquimod in the presence of α-Mannosidase over time for exogenous and endogenous experiments, 20 μL aliquots of 100 μM (pro-immunostimulant (compound 6)) in DMEM were incubated with 180 μL of either α-Mannosidase (0.1 U/mL, 37° C., 5% CO2), or AT3B1 cells (1×105, or 5×105, or 1×10^6 cells, 37° C., 5% CO2) without the addition of exogenous enzyme as shown by FIG. 6. To stop the reaction at the specified time points (0, 1, 2, 3, 6, 12, 24, and 48 h), 50 μL AO Quench Internal Standard (20 μg/mL, 2-methyl-4(3H)-quinazolinone in 1 M formic acid) was added to each individual reaction. Samples were then analyzed via LC-MS/MS.
The AT3B-1 cell line (ATCC CRL-2375, rat prostate epithelial malignant carcinoma) were grown in complete culture media composed of Roswell Park Memorial Institute (RPMI) 1640 medium with 4.5 g/L glucose, 2 mM L-glutamine, 10,000 U/mL penstrep, 10 mM HEPES and supplemented with 10% HI-FBS and 1 μM doxorubicin. Media was changed every 3-4 days omitting the doxorubicin, and cells were passaged once per week. Passaging involved changing media, counting, and seeding 3×10^5 cells in 35 mL of new complete media in a new T-175 culture flask.
α-Mannosidase from Canavalia ensiformis (Jack bean) was used directly from the bottle to make a 1 U/mL stock solution in DPBS. […]

β-galactosidase, sequence (P00722 2-1024): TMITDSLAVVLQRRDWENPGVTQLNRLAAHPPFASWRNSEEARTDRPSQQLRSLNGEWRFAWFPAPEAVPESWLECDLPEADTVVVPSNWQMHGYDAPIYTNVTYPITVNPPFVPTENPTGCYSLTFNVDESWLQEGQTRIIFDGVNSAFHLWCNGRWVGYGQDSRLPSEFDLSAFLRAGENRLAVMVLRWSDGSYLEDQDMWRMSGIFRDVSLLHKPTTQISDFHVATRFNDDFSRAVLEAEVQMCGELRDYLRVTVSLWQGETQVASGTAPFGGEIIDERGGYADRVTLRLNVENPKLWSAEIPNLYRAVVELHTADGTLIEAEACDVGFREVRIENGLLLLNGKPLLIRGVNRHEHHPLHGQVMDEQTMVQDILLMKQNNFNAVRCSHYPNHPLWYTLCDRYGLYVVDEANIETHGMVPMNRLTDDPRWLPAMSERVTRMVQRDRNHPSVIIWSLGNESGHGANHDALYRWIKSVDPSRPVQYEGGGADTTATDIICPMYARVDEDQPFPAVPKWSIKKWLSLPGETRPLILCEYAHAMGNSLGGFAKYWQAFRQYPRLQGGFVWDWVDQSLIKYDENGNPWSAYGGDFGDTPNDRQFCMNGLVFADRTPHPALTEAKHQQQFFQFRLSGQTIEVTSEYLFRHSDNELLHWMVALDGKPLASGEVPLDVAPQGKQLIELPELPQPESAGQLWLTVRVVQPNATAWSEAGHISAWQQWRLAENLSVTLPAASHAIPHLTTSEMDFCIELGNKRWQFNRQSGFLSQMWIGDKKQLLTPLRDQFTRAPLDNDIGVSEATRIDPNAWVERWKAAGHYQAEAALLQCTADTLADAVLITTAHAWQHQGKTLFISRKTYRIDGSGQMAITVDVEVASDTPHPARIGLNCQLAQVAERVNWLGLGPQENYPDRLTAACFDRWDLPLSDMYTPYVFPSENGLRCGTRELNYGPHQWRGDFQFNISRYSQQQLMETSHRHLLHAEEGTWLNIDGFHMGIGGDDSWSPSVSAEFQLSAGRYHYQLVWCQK

4-Imiquimod-2-nitrophenyl-galactopyranoside [compound 6]
depletion of (6) (β-galactosidase; 5 μm in DPBS, β-gal 1 U, 0, 1, 2 min): rapid depletion | stability without β-gal enzyme (no residual Imiquimod observed) (β-galactosidase; 10 μm (6) without β-gal enzyme): stable | conversion to Imiquimod (depletion of (6) and formation of Imiquimod) (β-galactosidase; exogenous β-galactosidase 5 mU, over 3 h): near quantitative conversion | conversion into Imiquimod (β-galactosidase; β-galactosidase 1 U, 2 nmol (200 μL of 10 μm), 16 h, 37° C.): quantitative conversion | conversion of the compound ([1]; β-galactosidase-enriched B16 cells (5 mU), over 3 h): quantitative conversion | conversion to Imiquimod ([1]; β-galactosidase-enriched B16 cells, 1×10^5 cells/well, 35 mU/well, 24 h): near quantitative conversion | conversion into Imiquimod ([1]; β-galactosidase-enriched B16 cells, after 3 h): > 36% | conversion to Imiquimod and efflux (AT3B1 cells): still being converted in the presence of enzyme and effluxed
